# Source: ChEMBL document CHEMBL2429864, “Synthesis and antimicrobial evaluation of 1,3,4-oxadiazole-based chalcone derivatives” (2013)
# Experiments:
# Assay type in all cases: functional
# Escherichia coli = test: Antibacterial activity against Escherichia coli ATCC 25922 by micro dilution/broth titre method
# Enterococcus faecalis = test: Antibacterial activity against Enterococcus faecalis ATCC 29212 by micro dilution/broth titre method
# Staphylococcus aureus = test: Antibacterial activity against Staphylococcus aureus ATCC 25923 by micro dilution/broth titre method
# Candida albicans = test: Antifungal activity against Candida albicans ATCC 10231
# Aspergillus niger = test: Antifungal activity against Aspergillus niger ATCC 1015
# Pseudomonas aeruginosa = test: Antibacterial activity against Pseudomonas aeruginosa ATCC 27853 by micro dilution/broth titre method
SMILES,MIC (Escherichia coli) [µg/mL],MIC (Enterococcus faecalis) [µg/mL],MIC (Staphylococcus aureus) [µg/mL],MIC (Candida albicans) [µg/mL],MIC (Aspergillus niger) [µg/mL],MIC (Pseudomonas aeruginosa) [µg/mL]
CN(C)c1ccc(/C=C\C(=O)c2ccc(NC(=O)CSc3nnc(-c4cccc([N+](=O)[O-])c4)o3)cc2)cc1,31.2,125,31.2,62.5,125,62.5
O=C(CSc1nnc(-c2cccc([N+](=O)[O-])c2)o1)Nc1ccc(C(=O)/C=C\c2ccccc2O)cc1,62.5,125,62.5,125,125,62.5
COc1ccc(/C=C\C(=O)c2ccc(NC(=O)CSc3nnc(-c4cccc([N+](=O)[O-])c4)o3)cc2)cc1,62.5,125,62.5,125,125,62.5
COc1ccc(OC)c(/C=C\C(=O)c2ccc(NC(=O)CSc3nnc(-c4cccc([N+](=O)[O-])c4)o3)cc2)c1,62.5,125,62.5,125,125,62.5
O=C(CSc1nnc(-c2cccc([N+](=O)[O-])c2)o1)Nc1ccc(C(=O)/C=C\c2c(O)ccc3ccccc23)cc1,62.5,62.5,62.5,62.5,62.5,62.5
O=C(CSc1nnc(-c2cccc([N+](=O)[O-])c2)o1)Nc1ccc(C(=O)/C=C\c2ccc(Cl)cc2)cc1,62.5,62.5,62.5,62.5,62.5,31.2
O=C(CSc1nnc(-c2cccc([N+](=O)[O-])c2)o1)Nc1ccc(C(=O)/C=C\c2ccc(O)cc2)cc1,31.2,125,125,62.5,62.5,31.2
COc1cc(/C=C\C(=O)c2ccc(NC(=O)CSc3nnc(-c4cccc([N+](=O)[O-])c4)o3)cc2)ccc1O,31.2,62.5,62.5,250,250,62.5
O=C(CSc1nnc(-c2cccc([N+](=O)[O-])c2)o1)Nc1ccc(C(=O)/C=C\c2ccc([N+](=O)[O-])cc2)cc1,31.2,62.5,62.5,250,250,62.5
O=C(CSc1nnc(-c2cccc([N+](=O)[O-])c2)o1)Nc1ccc(C(=O)/C=C\c2ccc(Br)cc2)cc1,62.5,62.5,62.5,250,250,62.5
COc1ccc(/C=C\C(=O)c2ccc(NC(=O)CSc3nnc(-c4cccc([N+](=O)[O-])c4)o3)cc2)cc1OC,62.5,31.2,62.5,500,500,62.5
O=C(CSc1nnc(-c2cccc([N+](=O)[O-])c2)o1)Nc1ccc(C(=O)/C=C\c2ccccc2[N+](=O)[O-])cc1,62.5,125,125,250,250,62.5
O=C(CSc1nnc(-c2cccc([N+](=O)[O-])c2)o1)Nc1ccc(C(=O)/C=C\c2ccccc2)cc1,31.2,31.2,31.2,250,125,62.5
COc1cc(/C=C\C(=O)c2ccc(NC(=O)CSc3nnc(-c4cccc([N+](=O)[O-])c4)o3)cc2)cc(OC)c1OC,62.5,62.5,62.5,250,125,62.5
O=C(O)c1cn(C2CC2)c2cc(N3CCNCC3)c(F)cc2c1=O [CIPROFLOXACIN],125,125,62.5,–,–,125
OC(Cn1cncn1)(Cn1cncn1)c1ccc(F)cc1F [FLUCONAZOLE],–,–,–,125,62.5,–
